Reference: publication PMC12239973 (Science Advances, 2025)
“Also recorded” adds a separate entry of the source. Where two headings read alike, the source gives them in different places.

Assays:
C3 [1] = assay: C3 opsonization of SPIO NWs in dog sera in vitro; assay type: biochemical; conditions: 10 μM, five breeds
human C3 deposition = assay: C3 deposition on nanoparticles in human serum, C3 dot-blot immunoassay; assay type: biochemical; conditions: for IC50: read-out: C3, IC50, healthy donor serum
human C5a release = assay: C5a release in the fluid phase of human serum with nanoparticles, ELISA; assay type: biochemical; conditions: for inhibition of C5a release: 100 μM; for IC50: read-out: C5a, IC50
C3 [2] = assay: C3 opsonization of SPIO NWs in mouse serum in vitro; assay type: biochemical, BALB/c mice
C3 [3] = assay: C3 opsonization of SPIO NWs in rat serum in vitro; assay type: biochemical, Sprague-Dawley rats; conditions: 100 μM
C3 [4] = assay type: biochemical, human; conditions: for inhibition of C3 opsonization of PLD, in words: two donors with top 10th percentile anti-PEG IgG/IgM, EGTA/Mg2+ 10 mM
C3d = C3d deposition on PLD in plasma of donors with high anti-PEG titers; assay type: biochemical, human; conditions: two donors with high anti-PEG titers; EDTA 10 mM; EGTA/Mg2+ 10 mM; sutimlimab 200 μg/ml; iptacopan 10 μM
blood leukocytes = assay: Blood leukocyte uptake of bolus-injected SPIO NWs in rats; assay type: in vivo, Sprague-Dawley rats
rat C3 = assay: In vivo C3 opsonization of SPIO NWs in rats; design: species or system Sprague-Dawley rats; conditions: high dose iptacopan 0.99 mg/kg, 60 min postinjection
dog C3 = assay: In vivo C3 opsonization of SPIO NWs in dogs; conditions: Beagle dogs; iptacopan 0.43 mg/kg IV; 30 min postinjection
Sprague-Dawley rats = assay: Rearing behavior of rats after bolus injection of SPIO NWs; assay type: in vivo
mouse C3 = assay: In vivo C3 opsonization of SPIO NWs in mice; design: species or system BALB/c mice; conditions: IV iptacopan, 5 min after the injection
granulocytes = assay: Blood leukocyte uptake of bolus-injected SPIO NWs in dogs; assay type: in vivo; conditions: Beagle dogs; iptacopan 0.43 mg/kg IV coinjected with SPIO NWs 6.6 mg/kg; 30 and 60 min
[5] = tested on: granulocytes, monocytes, lymphocytes; assay: Blood leukocyte uptake of bolus-injected SPIO NWs in mice; assay type: in vivo, BALB/c mice
[6] = tested on: granulocytes and monocytes; assay type: cell-based, human; conditions: CR2-CR1 10 nM, iptacopan 20 μM; for efficacy on uptake across donors, in words: liposomes and LNPs, five donors
Beagle dogs = assay: Blood pressure in anesthetized dogs after bolus injection of SPIO NWs; assay type: in vivo; conditions: iptacopan IV 0.4285 mg/kg
C3 convertases = conditions: mice and dogs; cited from earlier work
C4d = C4d deposition on PLD in plasma of donors with high anti-PEG titers; assay type: biochemical, human; conditions: two donors with high anti-PEG titers; EGTA/Mg2+ 10 mM; sutimlimab 200 μg/ml
[7] = EDTA 10 mM, sutimlimab 200 μg/ml, iptacopan 10 μM

**Q.** What does the source list for `CC(=O)c1nn(CC(=O)N2C[C@H](F)C[C@H]2C(=O)Nc2cccc(Br)n2)c2ccc(-c3cnc(C)nc3)cc12` [Danicopan, danicopan]?
**A.** inhibition of C3 opsonization in dog sera (C3 [1]): considerably less effective; inhibition of C3 deposition (human C3 deposition; PLD, inhibitor at 100 μM, human serum): less than 50%; IC50 (human C3 deposition; CLIO NWs): 10.8 µM; IC50 (human C3 deposition; Onivyde): 28.1 µM; IC50 (human C3 deposition; SPIO NWs): 0.417 µM; inhibition of C5a release (human C5a release; mRNA LNPs, donor F46): less than 60%; inhibition of C5a release (human C5a release; mRNA LNPs, donors F38 and M61): completely inhibited; C5a IC50, in words (human C5a release; mRNA LNPs, sera from three healthy donors): low micromolar; IC50 (human C5a release; CLIO NWs, human serum): 0.00693 µM; IC50 (human C5a release; Onivyde, human serum): 2.58 µM; IC50 (human C5a release; SPIO NWs, human serum): 0.00697 µM; IC50 (human C5a release; mRNA LNPs, donor F38 (table line matched to Fig. 2C)): 1.29 µM; IC50 (human C5a release; mRNA LNPs, donor F46 (table line matched to Fig. 2C)): 7.98 µM; IC50 (human C5a release; mRNA LNPs, donor M61 (table line matched to Fig. 2C)): 0.0712 µM; inhibition in mouse serum, in words (C3 [2]): poor inhibition; inhibition of C3 (C3 [3]): less than 50%

**Q.** For `O=C(O)CN(CCN(CC(=O)O)CC(=O)O)CC(=O)O` [EDTA], which “C3 on PLD blocked, on average” value (C3 [4]; lepirudin plasma, 10 donors, CR2-CR1 10 nM, EDTA 10 mM) is on record?
**A.** ~67%

**Q.** What about the “inhibition of C3 opsonization of PLD, in words” value (C3 [4]; [7]) of the same molecule?
**A.** only partially inhibited

**Q.** What about the “inhibition of C3d deposition on PLD, in words” value (C3d) of the same molecule?
**A.** full inhibition

**Q.** Which results are given for `CCO[C@H]1CCN(Cc2c(OC)cc(C)c3[nH]ccc23)[C@H](c2ccc(C(=O)O)cc2)C1` [Iptacopan, iptacopan]?
**A.** inhibition of uptake by granulocytes (blood leukocytes; high-dose iptacopan 0.99 mg/kg, 60 min): significant inhibition; uptake of SPIO NWs by blood leukocytes (blood leukocytes; iptacopan IV 0.21 mg/kg (low dose) and 0.99 mg/kg (high dose) with SPIO NWs 6.6 mg/kg, 60 min postinjection): inhibited uptake; rat C3 opsonization of NWs blocked (rat C3): more than 90%; dog C3 opsonization in the blood (dog C3): significantly decreased; rearings after coinjection with NWs (Sprague-Dawley rats; low or high dose of iptacopan): significant increase in rearings; also recorded: significantly normalized rearing behavior; C3 opsonization of NWs retrieved from plasma (mouse C3): significantly decreased; number of magnetic granulocytes (granulocytes): significantly reduced; iptacopan administered intraperitoneally compared with IV ([5]; IP before SPIO NWs): equally effective; inhibition of uptake of SPIO NWs by monocytes and lymphocytes ([5]; iptacopan with NWs 10 mg Fe/kg): partial inhibition; inhibition of C3 opsonization of PLD, in words (C3 [4]; [7]): marginally effective; inhibition of C3 opsonization of PLD, in words (C3 [4]; EDTA 10 mM, sutimlimab 200 μg/ml, iptacopan 10 μM, listed as iptacopan): minimal inhibition; efficacy on uptake across donors, in words [6]: effective in some donors; efficacy on uptake across donors, in words ([6]; listed as iptacopan): effective in three of five donors; reduction of SPIO NWs uptake (number of magnetic cells) ([6]; the one donor with measurable uptake): ~ 60%; inhibition of C3 opsonization in dog sera (C3 [1]): significant inhibition; inhibition of C3d deposition on PLD, in words (C3d): only partial activity; systolic and diastolic pressure after coinjection with SPIO NWs (Beagle dogs): prevents the drop in blood pressure; also recorded: restored

**Q.** Which “efficacy in animal species” value (C3 convertases) does the source give for “CR1: human complement receptor 1 (soluble CR1 therapeutics)” here?
**A.** not effective

**Q.** For EGTA/Mg^2+, which “inhibition of C4d deposition on PLD, in words” value (C4d) is on record?
**A.** inhibited

**Q.** What about the “inhibition of C3 opsonization of PLD, in words” value (C3 [4]; [7]) of the same molecule?
**A.** strong inhibition

**Q.** What about the “inhibition of C3d deposition on PLD, in words” value (C3d) of the same molecule?
**A.** full inhibition

**Q.** Which “rearing behavior after coinjection with NWs” value (Sprague-Dawley rats; PMX53 1 mg/kg IV, or 3 mg/kg IP + 1 mg/kg IV) does the source give for PMX53 here?
**A.** did not restore; also recorded: not significantly increased

B1: Sutimlimab: monoclonal antibody that binds C1s; classical pathway inhibitor (antibody, chains of the INN, looked up, V domains shown)
VH: EVQLVESGGGLVKPGGSLRLSCAASGFTFSNYAMSWVRQAPGKGLEWVATISSGGSHTYYLDSVKGRFTISRDNSKNTLYLQMNSLRAEDTALYYCARLFTGYAMDYWGQGTLVTVSS
VL: QIVLTQSPATLSLSPGERATMSCTASSSVSSSYLHWYQQKPGKAPKLWIYSTSNLASGVPSRFSGSGSGTDYTLTISSLQPEDFATYYCHQYYRLPPITFGQGTKLEIK
**Q.** What does the source list for B1?
**A.** inhibition of C4d deposition on PLD, in words (C4d): does not inhibit; inhibition of C3 deposition on PLD, in words (C3 [4]; lepirudin plasma, 10 donors, sutimlimab 200 μg/ml, iptacopan 10 μM): minimally effective; inhibition of C3 opsonization of PLD, in words (C3 [4]; [7]): marginal effectiveness; also recorded: minimal inhibition; inhibition of C3d deposition on PLD, in words (C3d): only partial activity
